The values below come from patent publication US20250034165A1, “COMPOUND CONTAINING CYCLOALKYL OR HALOALKYL” (CHIA TAI TIANQING PHARMACEUTICAL GROUP CO., LTD., priority 2021, published 2025).

In assay [1] the target is EGFR (d746-750/T790M/C797S) (Homo sapiens (Human), UniProt P00533, C797S/DEL746-750/T790M). Briefly: Inhibitory activity for EGFR (d746-750/T790M/C797S) kinase. In kind it is biochemical. As to conditions: ATP 5 μM; read-out: EGFR(d19/T790M/C797S) (IC50). The method in brief:
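EGFR d746-750/T790M/C797S (0.03 ng/μL final) preincubated 30 min with compound (10 nM–0.0024 nM, 4-fold, 7 points). Reaction with 5 μM ATP and 0.1 μM ULight-poly GT, 2 h at room temperature; EDTA stop, Eu-anti-phosphotyrosine TR-FRET read at 665 nm, IC50 by four-parameter fit.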

Another assay concerns the target EGFR (WT) (Homo sapiens (Human), UniProt P00533). Nature of the assay: Inhibitory activity for EGFR (WT) kinase. In kind it is biochemical. As to conditions: ATP 5 μM. As to the method:
A 50 ng/μL EGFR (WT, Carna) stock solution was diluted with a kinase buffer (50 mM HEPES, 10 mM MgCl2, 2 mM DTT, 1 mM EGTA, 0.01% Tween 20), and 6 μL of 1.67× working solution at 0.005 ng/μL (final concentration: 0.003 ng/μL) was added to each well. Different compounds dissolved in DMSO were added to the wells using a nanoliter pipettor, resulting in the final concentrations of the compounds of 100 nM to 0.0244 nM (4-fold gradient for 7 concentrations in total), and blank control wells (without enzyme) and negative control wells (with enzyme, plus vehicle DMSO) were set, 2 replicate wells for each concentration. After enzyme was reacted with the compound or vehicle for 30 min, 5×ATP at 25 μM (final concentration: 5 μM, Sigma) prepared with a kinase buffer was mixed with 5× substrate at 0.5 μM (final concentration: 0.1 μM, ULight-poly GT, PerkinElmer) at a ratio of 1:1 (v:v), and the mixture was added to each well at 4 μL/well. After being sealed with a film, the plate was incubated at room temperature for 2 h, and then 5 μL of 4×EDTA at 40 mM (final concentration: 10 mM) was added to each well. After the plate was incubated for 5 min at room temperature, 5 μL of 4× detection reagent at 8 nM (final concentration: 2 nM, Eu-anti-phospho-tyrosine antibody, PerkinElmer) was added to each well. After being incubated at room temperature for 1 h, the plate was read using a PerkinElmer Envision multi-mode microplate reader (excitation: 320 nm, emission: 665 nm), and IC50 was calculated by four-parameter fitting.

Assay [2] addresses EGFR (d746-750 (d19)/T790M) (Homo sapiens (Human), UniProt P00533, DEL746-750/T790M). Nature of the assay: Inhibitory activity for EGFR (d746-750 (d19)/T790M) kinase. It is filed as biochemical. As to conditions: ATP 5 μM. The method in brief:
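Recombinant EGFR d746-750/T790M (0.003 ng/μL final) preincubated 30 min with compound (10 to 0.0024 nM, 4-fold steps), then 5 μM ATP and 0.1 μM ULight-poly GT added for 2 h at room temperature. EDTA stop, Eu-anti-phosphotyrosine TR-FRET read (665 nm); IC50 by four-parameter fit.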

In assay [3] the test system is BAF3-EGFR (L858R/T790M/C797S) cells. Nature of the assay: Inhibition of proliferation of BAF3-EGFR (L858R/T790M/C797S) cells, CCK-8. It is filed as cell-based. As to conditions: 72 h, read-out: BAF3(EGFR T790M L858R C797S) cell inhibitory activity IC50. The gist of the method:
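BaF3 EGFR L858R/T790M/C797S cells seeded at 1.5×10^5 cells/mL in RPMI + 10% FBS, 37 °C, compound added after overnight, duplicates. Viability by CCK-8; % inhibition vs untreated and blank, IC50 by four-parameter fit.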

Where two headings read alike, the source gives them in different places.

Sequence of EGFR (d746-750 (d19)/T790M) (P00533 other isoform, or with tags, fused parts or gaps T790M/del 1-668/del 746-750 limits assumed): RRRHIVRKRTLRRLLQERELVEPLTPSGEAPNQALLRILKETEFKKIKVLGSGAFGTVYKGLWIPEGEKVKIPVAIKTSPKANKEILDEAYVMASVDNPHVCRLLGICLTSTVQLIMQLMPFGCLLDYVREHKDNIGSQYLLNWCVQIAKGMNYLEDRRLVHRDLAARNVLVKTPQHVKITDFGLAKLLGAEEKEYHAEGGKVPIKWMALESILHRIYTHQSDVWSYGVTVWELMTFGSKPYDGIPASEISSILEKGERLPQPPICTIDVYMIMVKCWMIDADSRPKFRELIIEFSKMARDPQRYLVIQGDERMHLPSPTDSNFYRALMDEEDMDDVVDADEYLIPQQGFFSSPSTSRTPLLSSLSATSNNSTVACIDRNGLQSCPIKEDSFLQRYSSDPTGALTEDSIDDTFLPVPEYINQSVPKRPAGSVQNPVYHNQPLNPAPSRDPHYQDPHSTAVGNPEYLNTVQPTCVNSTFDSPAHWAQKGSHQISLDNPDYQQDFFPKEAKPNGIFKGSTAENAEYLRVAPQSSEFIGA
Sequence of EGFR (WT) (P00533 25-1210): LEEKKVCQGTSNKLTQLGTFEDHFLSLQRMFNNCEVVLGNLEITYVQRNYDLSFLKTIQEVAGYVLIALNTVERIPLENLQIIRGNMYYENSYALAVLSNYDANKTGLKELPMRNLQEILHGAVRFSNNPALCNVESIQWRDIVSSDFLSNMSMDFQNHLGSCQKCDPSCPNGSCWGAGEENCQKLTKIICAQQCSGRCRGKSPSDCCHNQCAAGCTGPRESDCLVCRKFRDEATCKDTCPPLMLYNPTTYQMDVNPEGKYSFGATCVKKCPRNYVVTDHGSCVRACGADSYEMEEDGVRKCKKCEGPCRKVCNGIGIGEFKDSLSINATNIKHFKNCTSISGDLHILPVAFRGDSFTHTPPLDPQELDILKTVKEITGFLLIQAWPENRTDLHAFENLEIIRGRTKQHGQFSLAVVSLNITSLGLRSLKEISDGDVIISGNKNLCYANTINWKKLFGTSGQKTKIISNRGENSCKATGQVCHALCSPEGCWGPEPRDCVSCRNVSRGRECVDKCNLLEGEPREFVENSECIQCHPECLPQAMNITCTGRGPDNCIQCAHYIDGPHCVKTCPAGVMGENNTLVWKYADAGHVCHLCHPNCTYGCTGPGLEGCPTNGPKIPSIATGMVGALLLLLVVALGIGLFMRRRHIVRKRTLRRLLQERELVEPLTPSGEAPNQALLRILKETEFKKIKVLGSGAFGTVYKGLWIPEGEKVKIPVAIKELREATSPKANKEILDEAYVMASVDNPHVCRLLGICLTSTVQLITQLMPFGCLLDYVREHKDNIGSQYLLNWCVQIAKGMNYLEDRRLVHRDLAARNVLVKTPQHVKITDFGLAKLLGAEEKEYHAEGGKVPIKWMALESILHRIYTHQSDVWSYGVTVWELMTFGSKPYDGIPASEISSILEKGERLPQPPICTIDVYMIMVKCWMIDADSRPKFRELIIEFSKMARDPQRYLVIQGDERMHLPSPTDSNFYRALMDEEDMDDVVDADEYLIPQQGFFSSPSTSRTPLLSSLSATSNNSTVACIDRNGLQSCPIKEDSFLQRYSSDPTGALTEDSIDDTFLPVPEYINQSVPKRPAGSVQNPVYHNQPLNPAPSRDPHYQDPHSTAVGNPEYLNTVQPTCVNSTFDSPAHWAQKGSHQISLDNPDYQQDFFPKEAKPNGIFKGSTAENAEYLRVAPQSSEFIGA
Sequence of EGFR (d746-750/T790M/C797S) (P00533 other isoform, or with tags, fused parts or gaps T790M/C797S/del 1-694/del 746-750 limits assumed): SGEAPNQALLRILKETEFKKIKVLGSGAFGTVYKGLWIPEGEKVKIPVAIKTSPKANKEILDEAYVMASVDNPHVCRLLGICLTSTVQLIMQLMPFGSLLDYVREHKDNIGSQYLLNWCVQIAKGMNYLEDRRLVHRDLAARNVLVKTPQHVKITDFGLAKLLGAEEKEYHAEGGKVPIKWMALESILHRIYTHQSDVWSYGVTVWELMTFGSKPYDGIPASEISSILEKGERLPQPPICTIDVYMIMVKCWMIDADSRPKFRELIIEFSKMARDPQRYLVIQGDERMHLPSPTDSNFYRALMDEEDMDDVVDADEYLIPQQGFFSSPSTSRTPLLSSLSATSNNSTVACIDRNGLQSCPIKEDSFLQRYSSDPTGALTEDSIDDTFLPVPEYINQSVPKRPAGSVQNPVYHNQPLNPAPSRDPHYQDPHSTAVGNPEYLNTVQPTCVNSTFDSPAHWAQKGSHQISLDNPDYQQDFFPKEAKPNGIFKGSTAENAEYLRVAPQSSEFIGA

For the compound `C[C@H](Nc1ccc2c(c1)N/C1=N\C(=O)c3cc(F)nc(c3)-c3cnn(C)c3OCCC[C@@H](C3CC3)CN12)C(F)(F)F` [Example 9], the values for the IC50 (in assay [1]; on EGFR (WT); in assay [2]) were 450 pM, 560 pM and 280 pM, respectively.
Take `Cc1cc2cc(n1)-c1cnn(C)c1OCCC[C@@H](C1CC1)CN1/C(=N/C2=O)Nc2ccc(C=CCCN(C)C)cc21` [Example 24]: the IC50 is 21 pM in assay [1], 1100 pM at EGFR (WT), less than 5000 pM in assay [3] and 16 pM in assay [2].
For `Cc1cc2cc(n1)-c1cnn(C)c1OCCC[C@@H](C1CC1)CN1/C(=N/C2=O)Nc2cc(N[C@H]3CC[C@H](N(C)C)CC3)ccc21` [Example 25], in that order: 14 pM, 49 pM, less than 5000 pM and 11 pM.
As for `Cc1cc2cc(n1)-c1cnn(C)c1OCCC[C@@H](C1CC1)CN1/C(=N/C2=O)Nc2cc(N[C@H]3CC[C@@H](N(C)C)CC3)ccc21` [Example 26], the IC50 is 17 pM in assay [1], 240 pM on EGFR (WT), less than 5000 pM in assay [3] and 11 pM in assay [2].
Turning to `Cc1cc2cc(n1)-c1cnn(C)c1OCCC[C@@H](C1CC1)CN1/C(=N/C2=O)Nc2ccc(NCCN(C)C)cc21` [Example 28], the IC50 was 11 pM in assay [1], less than 5000 pM in assay [3] (Ba/F3 EGFR) and 7.2 pM in assay [2].
For the compound `Cc1cc2cc(n1)-c1cnn(C)c1OCCC[C@@H](C1CC1)CN1/C(=N/C2=O)Nc2cc(NC3(C)COC3)ccc21` [Example 29], the IC50 in assay [1] is 15 pM; in assay [3] (Ba/F3 EGFR) it was less than 5000 pM; in assay [2], 8.9 pM.
For the compound `Cc1cc2cc(n1)-c1cnn(C)c1OCCC[C@@H](C1CC1)CN1/C(=N/C2=O)Nc2cc(N[C@H](C)C3COC3)ccc21` [Example 39], the IC50 in assay [1] is 24 pM; against EGFR (WT) it was 610 pM; in assay [3], less than 5000 pM; in assay [2], 12 pM.
In the case of `Cc1cc2cc(n1)-c1cnn(C)c1OC[C@H](C1CC1)CCCn1c(nc3ccc(NC4COC4)cc31)NC2=O` [Example 59], the IC50 came out at 74 pM in assay [1], 5900 pM at EGFR (WT) and 40 pM in assay [2].
Regarding `Cc1cc2cc(n1)-c1cnn(C)c1OC[C@H](C1CC1)CCCn1c(nc3cc(NC4COC4)ccc31)NC2=O` [Example 60], the IC50 was 70 pM in assay [1], 8000 pM against EGFR (WT) and 39 pM in assay [2].
As for `Cc1cc2cc(n1)-c1cnn(C)c1OCCC[C@@H](C1CC1)CN1/C(=N/C2=O)Nc2cc(NC3(C(F)(F)F)COC3)ccc21` [Example 88], the IC50 in assay [1] was 181 pM; at EGFR (WT), 6000 pM; in assay [3] (Ba/F3 EGFR), less than 5000 pM; in assay [2] it was 44 pM.
